From patent publication US7098199B2 (Sterix Limited, priority 1991, dated 2006)
Like-named read-outs stand apart in the source and are kept apart here.

How the values were obtained:
[1] = molecular target: T1, Steroid sulphatase (Steryl Sulphatase EC3.1.6.2) (Homo sapiens, UniProt P08842); assay: Steroid sulphatase activity in intact MCF-7 cells; type: cell-based; settings: for Steroid Sulphatase Activity: mean ± 1 S.D.
T1 construct: endogenous in cells; host or cells: MCF-7 human breast cancer cells
T1 sequence (P08842 22-583): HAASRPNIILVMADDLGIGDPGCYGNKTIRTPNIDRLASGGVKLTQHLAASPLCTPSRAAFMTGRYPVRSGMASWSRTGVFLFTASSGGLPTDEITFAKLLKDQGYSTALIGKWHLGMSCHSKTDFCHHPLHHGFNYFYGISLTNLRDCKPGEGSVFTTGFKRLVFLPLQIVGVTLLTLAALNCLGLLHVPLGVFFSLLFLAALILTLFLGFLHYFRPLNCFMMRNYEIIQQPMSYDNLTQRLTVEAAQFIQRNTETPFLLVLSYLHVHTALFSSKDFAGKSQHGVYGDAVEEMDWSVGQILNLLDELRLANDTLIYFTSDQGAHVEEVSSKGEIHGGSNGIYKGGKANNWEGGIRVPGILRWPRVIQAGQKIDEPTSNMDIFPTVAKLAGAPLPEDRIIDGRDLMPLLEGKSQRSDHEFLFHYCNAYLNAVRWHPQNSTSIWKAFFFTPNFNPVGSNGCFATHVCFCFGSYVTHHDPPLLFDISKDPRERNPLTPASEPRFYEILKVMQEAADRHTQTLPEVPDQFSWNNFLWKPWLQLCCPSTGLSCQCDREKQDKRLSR
Method: Steroid sulphatase is defined as: Steryl Sulphatase EC3.1.6.2.
Steroid sulphatase activity was measured in vitro using intact MCF-7 human breast cancer cells. This hormone dependent cell line is widely used to study the control of human breast cancer cell growth. […] Cells were maintained in Minimal Essential Medium (MEM) (Flow Laboratories, Irvine, Scotland) containing 20 mM HEPES, 5% foetal bovine serum, 2 mM glutamine, nonessential amino acids and 0.075% sodium bicarbonate. Up to 30 replicate 25 cm^2 tissue culture flasks were seeded with approximately 1×10^5 cells/flask using the above medium. Cells were grown to 80% confluency and medium was changed every third day.
Each batch of experiments included incubations of microsomes prepared from a sulphatase-positive human placenta (positive control) and flasks without cells (to assess apparent non-enzymatic hydrolysis of the substrate). The number of cell nuclei per flask was determined using a Coulter Counter after treating the cell monolayers with Zaponin. One flask in each batch was used to assess cell membrane status and viability using the Trypan Blue exclusion method (Phillips, H. J. (1973) In: Tissue culture and applications,[eds: Kruse, D. F. & Patterson, M. K.]; pp. 406–408; Academic Press, New York).
Unpaired Student's t-test was used to test the statistical significance of results.
An identical experimental protocol to that described in Example 4 was used to generate results for oestrone-3-N,N-diimethylsulphamate except that incubations contained oestrone-3-N,N-dimethylsulphaiate (5 concentrations: 0; 0.001 μM; 0.01 μM; 0.1 μM; 1 μM) in place of oestrone-3-sulphamate.

Steroid sulphatase [2] = molecular target: T2, Steroid sulphatase (Homo sapiens, UniProt P08842); assay: Steroid sulphatase activity in placental microsomes; settings: for Steroid Sulphatase Activity: mean of 2 estimates
T2 sequence (P08842 22-583): T1 sequence (P08842 22-583)

Steroid sulphatase [3] = molecular target: T3, Steroid sulphatase (Rattus norvegicus, UniProt P15589); assay: % inhibition in vivo from a single dose (Example 9); set-up: from tissue; host or cells: tissue of treated animals; tissue not given; settings: single dose of 10 mg/kg
T3 sequence (P15589 20-577): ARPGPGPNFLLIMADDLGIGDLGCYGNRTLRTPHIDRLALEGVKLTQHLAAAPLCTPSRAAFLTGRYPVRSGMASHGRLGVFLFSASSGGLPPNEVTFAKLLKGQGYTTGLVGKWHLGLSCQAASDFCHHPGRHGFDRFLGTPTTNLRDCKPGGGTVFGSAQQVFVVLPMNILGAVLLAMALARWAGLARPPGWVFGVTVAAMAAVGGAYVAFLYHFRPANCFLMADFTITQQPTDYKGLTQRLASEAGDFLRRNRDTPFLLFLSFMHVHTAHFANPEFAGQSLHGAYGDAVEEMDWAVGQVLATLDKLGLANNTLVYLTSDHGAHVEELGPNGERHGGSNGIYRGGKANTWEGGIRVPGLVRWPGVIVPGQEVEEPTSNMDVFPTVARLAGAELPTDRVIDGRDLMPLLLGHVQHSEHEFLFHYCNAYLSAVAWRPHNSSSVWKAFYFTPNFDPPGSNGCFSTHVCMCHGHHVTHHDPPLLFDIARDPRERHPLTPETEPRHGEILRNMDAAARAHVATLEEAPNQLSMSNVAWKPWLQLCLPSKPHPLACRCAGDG

Steroid sulphatase [4] = molecular target: T3, Steroid sulphatase; assay: Steroid sulphatase activity in liver microsome preparations from rats treated subcutaneously; type: in vivo; set-up: except that the tissue source was rat liver; from tissue; host or cells: liver of female Wistar rats; settings: 10 mg/kg/day s.c. for 7 days, rat liver microsomes; for Steroid Sulphatase Activity: mean ± 1 S.D., n = 3
oestrone sulphatase = molecular target: T4, oestrone sulphatase (Homo sapiens, UniProt P08842); type: cell-based
T4 sequence (P08842 22-583): T1 sequence (P08842 22-583)

[5] = molecular target: T1, Steroid sulphatase (Steryl Sulphatase EC3.1.6.2); assay: Steroid sulphatase activity in MCF-7 cells pre-incubated with inhibitor and washed; type: cell-based; settings: pre-treatment 2 hours with 0.1 μM, cells washed 3 times; for Steroid Sulphatase Activity: mean ± 1 S.D., n = 3
E1-STS = molecular target: T5, E1-STS (Homo sapiens, UniProt P08842); assay: Hydrolysis of coumarin sulphate (12) by placental microsomes, TLC; type: biochemical; settings: EMATE 10 μM
T5 construct: from tissue; host or cells: placental microsomes (100,000 g fraction)
T5 sequence (P08842 22-583): T1 sequence (P08842 22-583)

Steroid sulphatase [6] = molecular target: T2, Steroid sulphatase; assay: biochemical

## COc1cc(CNC(=O)CCCC/C=C/C(C)C)ccc1OS(N)(=O)=O [9b, (E) Methyl-γ-methyl-6-nonenamide-N-(3-methboxyphenyl4-O-sulphanate)]
[1]; MCF7
  inhibition at 10 µM: 99 ± 2%
Steroid sulphatase [2]
  % Inhibition in Placental Microsomes at 10 μM: 40±2%
Steroid sulphatase [3]
  % Inhibition in vivo from a single dose of 10 mg/kg: 22±3%

## NS(=O)(=O)Oc1ccccc1[N+](=O)[O-] [9c, 2-Nitrophenol-O-sulfamate]
[1]; MCF7
  inhibition at 10 µM: 99 ± 2%
Steroid sulphatase [2]
  % Inhibition in Placental Microsomes at 10 μM: 40±2%
Steroid sulphatase [3]
  % Inhibition in vivo from a single dose of 10 mg/kg: 22±3%

## CCCCCCCOc1ccc(OS(N)(=O)=O)cc1 [9a]
[1]; MCF7
  inhibition at 10 µM: 99 ± 2%
other
  melting point: > 42 °C (dec.)
Steroid sulphatase [2]
  % Inhibition in Placental Microsomes at 10 μM: 40±2%
Steroid sulphatase [3]
  % Inhibition in vivo from a single dose of 10 mg/kg: 22±3%

## C[C@]12CC[C@@H]3c4ccc(OS(=O)(=O)O)cc4CC[C@H]3[C@@H]1CCC2=O [E1-S, Oestrone-3-sulphate, reference compound]
Steroid sulphatase [4]; assay substrate DHA-S
  Steroid Sulphatase Activity: 1.71 ± 0.1 nmol/30 min/200 mg protein
Steroid sulphatase [4]; assay substrate E1-S
  Steroid Sulphatase Activity: 20.6 ± 0.4 nmol/30 min/200 mg protein

## NS(=O)(=O)Oc1ccc(-c2coc3cc(OS(N)(=O)=O)cc(O)c3c2=O)cc1 [Isoflavone 5-hydroxy-4′,7-bissulphamate, 5-Hydroxy Isoflavone4′-O,O-Disulphamate]
Oestrone sulphatase; 0.1 μM
  % Inhibition MCF-7 Cells: 28%

## CN(C)S(=O)(=O)Oc1ccc2c(c1)CC[C@@H]1[C@@H]2CC[C@]2(C)C(=O)CC[C@@H]12 [Oestrone-3-N,N-dimethylsulphamate, oestrone-3-N.N-dimethylsulphamate]
[1]; inhibitor 0.001 μM
  % reduction over control (% inhibition): 17.3%
  Steroid Sulphatase Activity: 68.33 ± 3.2 fmol/20 hr/10^6 cells
[1]; inhibitor 0.01 μM
  % reduction over control (% inhibition): 44.3%
[1]; inhibitor 0.01 μM, n = 3
  Steroid Sulphatase Activity: 46.0 ± 4.9 fmol/20 hr/10^6 cells
[1]; inhibitor 0.1 μM
  % reduction over control (% inhibition): 78.9%
[1]; inhibitor 0.1 μM, n = 3
  Steroid Sulphatase Activity: 17.43 ± 4.3 fmol/20 hr/10^6 cells
[1]; inhibitor 1 μM
  % reduction over control (% inhibition): 85.6%
[1]; inhibitor 1 μM, n = 3
  Steroid Sulphatase Activity: 11.89 ± 3.7 fmol/20 hr/10^6 cells
[5]
  % reduction over control (% inhibition): 18.8%
  Steroid Sulphatase Activity: 53.1 ± 3.4 fmol/20 hr/10^6 cells

## NS(=O)(=O)Oc1ccc(-c2coc3cc(O)cc(O)c3c2=O)cc1 [Isoflavone 5.7-dihydroxy-4′-sulphamate, 5,7-Dihydroxy Isoflavone-4′-O-Sulphamate]
Oestrone sulphatase; 0.1 μM
  % Inhibition MCF-7 Cells: 23%
Oestrone sulphatase; 1.0 μM
  % Inhibition MCF-7 Cells: 83%
Oestrone sulphatase; 10.0 μM
  % Inhibition MCF-7 Cells: 99%

## C[C@]12CC[C@@H]3c4ccc(OS(N)(=O)=O)cc4CC[C@H]3[C@@H]1CCC2=O [Oestrone-3-sulphamate]
[1]; MCF7, inhibitor 0.01 nM, read-out: % reduction over control (% inhibition)
  inhibition at 10 pM: 17.2%
[1]; MCF7, inhibitor 0.1 nM, read-out: % reduction over control (% inhibition)
  inhibition at 0.0001 µM: 60.9%
[1]; MCF7, inhibitor 1 nM, read-out: % reduction over control (% inhibition)
  inhibition at 0.001 µM: 95%
[1]; MCF7, inhibitor 0.01 μM, read-out: % reduction over control (% inhibition)
  inhibition at 0.01 µM: 98.8%
[1]; MCF7, inhibitor 0.1 μM, read-out: % reduction over control (% inhibition)
  inhibition at 0.1 µM: 99.2%
[1]; MCF7, inhibitor 1 μM, read-out: % reduction over control (% inhibition)
  inhibition at 1 µM: 99.5%
[1]; inhibitor 0.01 pM, n = 3
  Steroid Sulphatase Activity: 362.3 ± 21.2 fmol/20 hr/10^6 cells
[1]; inhibitor 0.1 pM, n = 3
  Steroid Sulphatase Activity: 330.7 ± 17.8 fmol/20 hr/10^6 cells
[1]; inhibitor 1 pM, n = 3
  Steroid Sulphatase Activity: 321.8 ± 6.2 fmol/20 hr/10^6 cells
[1]; inhibitor 0.01 nM, n = 3
  Steroid Sulphatase Activity: 265.1 ± 11.0 fmol/20 hr/10^6 cells
[1]; inhibitor 0.1 nM, n = 3
  Steroid Sulphatase Activity: 124.8 ± 12.4 fmol/20 hr/10^6 cells
[1]; inhibitor 1 nM, n = 3
  Steroid Sulphatase Activity: 16.49 ± 4.7 fmol/20 hr/10^6 cells
[1]; inhibitor 0.01 μM, n = 3
  Steroid Sulphatase Activity: 3.92 ± 0.4 fmol/20 hr/10^6 cells
[1]; inhibitor 0.1 μM, n = 3
  Steroid Sulphatase Activity: 2.53 ± 1.1 fmol/20 hr/10^6 cells
[1]; inhibitor 1 μM, n = 3
  Steroid Sulphatase Activity: 1.68 ± 0.7 fmol/20 hr/10^6 cells
[1]; inhibitor 1 fM, n = 3
  Steroid Sulphatase Activity: 353.3 ± 39.0 fmol/20 hr/10^6 cells
[5]
  Steroid Sulphatase Activity: 1.7 ± 0.2 fmol/20 hr/10^6 cells
E1-STS
  effect on hydrolysis of compound (12) by E1-STS (in words): reduced the hydrolysis of compound (12) by E1-STS
Steroid sulphatase [6]
  IC50: 70 nM
Steroid sulphatase [2]; 0.05 µM
  % reduction over control (% inhibition): 44.0%
Steroid sulphatase [2]; 0.1 μM
  % reduction over control (% inhibition): 60.2%
Steroid sulphatase [2]; 0.2 µM
  % reduction over control (% inhibition): 81.8%
Steroid sulphatase [2]; 0.4 µM
  % reduction over control (% inhibition): 89.2%
Steroid sulphatase [2]; 0.6 µM
  % reduction over control (% inhibition): 92.0%
Steroid sulphatase [2]; 0.8 µM
  % reduction over control (% inhibition): 93.6%
Steroid sulphatase [2]; 1 μM
  % reduction over control (% inhibition): 93.3%
Steroid sulphatase [2]; inhibitor 0.05 μM
  Steroid Sulphatase Activity: 430.4 pmol/hr/0.1 mg protein
Steroid sulphatase [2]; inhibitor 0.1 μM
  Steroid Sulphatase Activity: 305.9 pmol/hr/0.1 mg protein
Steroid sulphatase [2]; inhibitor 0.2 μM
  Steroid Sulphatase Activity: 140.0 pmol/hr/0.1 mg protein
Steroid sulphatase [2]; inhibitor 0.4 μM
  Steroid Sulphatase Activity: 83.3 pmol/hr/0.1 mg protein
Steroid sulphatase [2]; inhibitor 0.6 μM
  Steroid Sulphatase Activity: 61.8 pmol/hr/0.1 mg protein
Steroid sulphatase [2]; inhibitor 0.8 μM
  Steroid Sulphatase Activity: 49.2 pmol/hr/0.1 mg protein
Steroid sulphatase [2]; inhibitor 1.0 μM
  Steroid Sulphatase Activity: 51.6 pmol/hr/0.1 mg protein
Steroid sulphatase [4]; assay substrate DHA-S
  % reduction over control: 94.2%
  Steroid Sulphatase Activity: 0.1 ± 0.01 nmol/30 min/200 mg protein
Steroid sulphatase [4]; assay substrate E1-S
  % reduction over control: 98.4%
  Steroid Sulphatase Activity: 0.34 ± 0.1 nmol/30 min/200 mg protein
